Reference: patent publication US9770461B2, “Tailored glycopolymers as anticoagulant heparin mimetics” (California Institute of Technology, priority 2013, dated 2017)

Key:
Type in all cases: biochemical
Factor Xa (FXa) = test: Chromogenic anti-FXa assay in the presence of antithrombin III; conditions: with ATIII
Description: The BIOPHEN Heparin Anti-Xa (2 stages) USP/EP kit (Aniara) was used to determine factor Xa activity. This chromogenic anti-Xa method for measuring homogeneous heparin in purified systems is in compliance with Pharmacopoeias (USP, EP) and FDA guidelines. All reagents were prepared according to manufacturer's instructions and incubated at 37° C. for 15 min. Varying concentrations of heparin (Neoparin) or glycopolymers 1-4 (40 μL) and antithrombin (40 μL) were added to a microcentrifuge tube, mixed, and incubated at 37° C. for 2 min. Factor Xa (40 μL) was added to the solution, incubated at 37° C. for exactly 2 min, and then the factor Xa chromogenic substrate (40 μL) was added. After 2 min, the reaction was quenched with citric acid (20 g/L, 240 μL), and the absorbance was measured at 405 nm. The sample blank was obtained by mixing the reagents in reverse order, and the resulting value was deducted from the absorbance values measured in the assay.
All reagents were prepared according to the manufacturer's instructions and incubated at 37° C. for 15 min. […] Absorbance at 405 nm was measured on a Uvikon XL spectrophotometer. […] The sample blank value was deducted from the absorbance measured for the corresponding assay.

citrated human plasma [1] = test: Activated partial thromboplastin time (APTT) analysis
Description: (§1) Plasma/anticoagulant samples were prepared by mixing 300 μL of the heparin standard or glycopolymer (150 μg/mL) in 0.9% saline and 2.7 mL of citrated human plasma. The tube was inverted 3 times to mix the sample thoroughly. Samples were analyzed by the UCLA Clinical & Translational Research Laboratory using a Sysmex® CA-1500 Coagulation Analyzer (Siemens AG, Erlangen, Germany). Clotting time in the absence of an anticoagulant was determined using 0.9% saline solution water (300 μL). Each clotting assay was performed in triplicate.

citrated human plasma [2] = test: Prothrombin time (PT) analysis; conditions: 300 μL of 150 μg/mL sample in 2.7 mL citrated human plasma
Description: as §1, with “Samples were” for “Plasma/anticoagulant samples were”, “saline with” for “saline and”, “mL” for “mL of”

IC50 (Factor Xa (FXa)): 11 ± 0.1 nM
Structure (SMILES): CO[C@H]1O[C@H](COS(=O)(=O)O)[C@@H](O[C@@H]2O[C@@H](C(=O)O)[C@@H](O[C@H]3O[C@H](COS(=O)(=O)O)[C@@H](O[C@@H]4O[C@H](C(=O)O)[C@@H](O[C@H]5O[C@H](COS(=O)(=O)O)[C@@H](O)[C@H](O)[C@H]5NS(=O)(=O)O)[C@H](O)[C@H]4O)[C@H](OS(=O)(=O)O)[C@H]3NS(=O)(=O)O)[C@H](O)[C@H]2OS(=O)(=O)O)[C@H](O)[C@H]1NS(=O)(=O)O [Arixtra]
APTT (citrated human plasma [1]; 300 μL of 150 μg/mL sample in 2.7 mL citrated human plasma): 78.3 ± 0.4 s | effect on APTT (in words) (citrated human plasma [1]; compared to saline control): increased only the APTT | PT (citrated human plasma [2]): 15.1 ± 0.3 s
